Molecules are shown by their SMILES. Bounds are passed on as bounds.

The experiment concerns the target T1, androgen receptor (AR-LBD) (Rattus norvegicus, UniProt P15207).
T1 construct: 5 μL of 2×AR-LBD/Fluoromone AL Red Complex contained in the kit; purchased Invitrogen
T1 sequence (P15207 651-882 limits assumed): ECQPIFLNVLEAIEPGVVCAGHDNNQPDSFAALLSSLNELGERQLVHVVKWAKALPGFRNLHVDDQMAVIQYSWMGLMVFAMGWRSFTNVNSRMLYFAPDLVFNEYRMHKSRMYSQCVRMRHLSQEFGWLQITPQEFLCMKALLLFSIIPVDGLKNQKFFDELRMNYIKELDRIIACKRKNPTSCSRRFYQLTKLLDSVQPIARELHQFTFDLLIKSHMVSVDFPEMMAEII
The experiment in a line: Evaluation of androgen receptor affinity (PolarScreen Androgen Receptor Competitor Assay Kit, Red; fluorescence polarization). Conditions: 22° C. for 5 hours, relative to binding rate of 1 μM DHT, read-out: AR affinity (pEC50) (converted). On the procedure:
Evaluation of an Androgen Receptor Affinity
To examine the interaction of a compound with an androgen receptor, evaluation was carried out in accordance with the following procedure using PolarScreen™ Androgen Receptor Competitor Assay Kit, Red (Invitrogen). To 2 wells each of a 384 well black plate was added 5 μL of the compound solution. To each well was added 5 μL of 2×AR-LBD/Fluoromone AL Red Complex contained in the kit and the samples were reacted at 22° C. for 5 hours. After 5 hours of the reaction, fluorescence polarization was measured and the affinity was evaluated. The affinity of the compound was determined by comparing to the binding rate of 1 μM of dihydrotestosterone (DHT), and quantified the logarithm value (pEC50) of reciprocal value of the effective concentration of the compound which is equal to 50% of the binding rate by applying a 4 parameter goodness-of-fit calculation.
Background: Polarisation of emitted light reports the rotation of a fluorescent probe.
For the compound `Cc1sc(N(Cc2ccccc2)c2ccccc2Cl)nc1C(=O)NS(C)(=O)=O` [Compound 33, 2-(N-benzyl-2-chloro-anilino)-5-methyl-N-methylsulfonyl-thiazole-4-carboxamide], the EC50 is more than 2 µM.
The value for `Cc1sc(N(CCCC#N)c2ccc(C#N)cc2)nc1C(=O)NS(C)(=O)=O` [Compound 360, 2-[4-cyano-N-(3-cyanopropyl)anilino]-5-methyl-N-methylsulfonyl-thiazole-4-carboxamide] was more than 2 µM; that for `Cc1sc(N(Cc2ccccc2)CC2CCCCC2)nc1C(=O)NS(C)(=O)=O` [Compound 668, 2-[benzyl(cyclohexylmethyl)amino]-5-methyl-N-methylsulfonyl-thiazole-4-carboxamide] was more than 2 µM.
The value for `Cc1sc(N(Cc2ccccc2)c2ccc3c(ccn3C)c2)nc1C(=O)NS(C)(=O)=O` [Compound 338, 2-[benzyl-(1-methylindole-5-yl]amino]-5-methyl-N-methylsulfonyl-thiazole-4-carboxamide] was more than 2 µM; that for `Cc1sc(N(CCCc2ccccc2)c2ccc(C#N)cc2)nc1C(=O)NS(C)(=O)=O` [Compound 433, 2-[4-cyano-N-(3-phenylpropyl)anilino]-5-methyl-N-methylsulfonyl-thiazole-4-carboxamide] was more than 2 µM; that for `Cc1sc(N(Cc2ccccc2)Cc2csc3cc(C(F)(F)F)ccc23)nc1C(=O)NS(C)(=O)=O` [Compound 676, 2-[benzyl-[[6-(trifluoromethyl)benzothiophen-3-yl]methyl]amino]-5-methyl-N-methylsulfonyl-thiazole-4-carboxamide] was more than 2 µM.
As for `COc1cccc(N(Cc2ccccc2)c2nc(C(=O)NS(C)(=O)=O)c(C)s2)c1` [Example 204, 2-(N-benzyl-3-methoxy-anilino)-5-methyl-N-methylsulfonyl-thiazole-4-carboxamide], the EC50 was more than 2 µM.
To `Cc1sc(N(Cc2ccccc2)c2ccc(OCc3ccccc3)cc2)nc1C(=O)NS(C)(=O)=O` [Compound 38, 2-(N-benzyl-4-benzyloxy-anilino)-5-methyl-N-methylsulfonyl-thiazole-4-carboxamide] belongs more than 2 µM.
With `Cc1sc(N(CCc2ccc(C(=O)O)cc2)Cc2ccccc2)nc1C(=O)NS(C)(=O)=O` [Compound 328, 4-[2-[benzyl-[5-methyl-4-(methylsulfonylcarbamoyl)thiazol-2-yl]amino]ethyl]benzoic acid], the EC50 is more than 2 µM.
The value for `Cc1sc(N(Cc2ccccc2)c2ccccc2O)nc1C(=O)NS(C)(=O)=O` [Example 207, 2-(N-benzyl-2-hydroxy-anilino)-5-methyl-N-methylsulfonyl-thiazole-4-carboxamide] was more than 2 µM.
To `COC(C)(C)CCN(c1ccc(C#N)cc1)c1nc(C(=O)NS(C)(=O)=O)c(C)s1` [Compound 444, 2-(4-cyano-N-(3-methoxy-3-methyl-butyl)anilino)-5-methyl-N-methylsulfonyl-thiazole-4-carboxamide] belongs 1.26 µM; to `Cc1sc(N(Cc2ccccc2)c2ccc(OCCOCc3ccccc3)cc2)nc1C(=O)NS(C)(=O)=O` [Example 209, 2-[N-benzyl-4-(2-benzyloxyethoxy)anilino]-5-methyl-N-methylsulfonyl-thiazole-4-carboxamide], more than 2 µM.
To `Cc1sc(N(Cc2ccccc2)Cc2cccc(C#N)c2)nc1C(=O)NS(C)(=O)=O` [Example 290, 2-[benzyl-[(3-cyanophenyl)methyl]amino]-5-methyl-N-methylsulfonyl-thiazole-4-carboxamide] belongs more than 2 µM; to `Cc1sc(N(Cc2ccccc2)c2ccccc2OC(F)(F)F)nc1C(=O)NS(C)(=O)=O` [Compound 27, 2-[N-benzyl-2-(trifluoromethoxy)anilino]-5-methyl-N-methylsulfonyl-thiazole-4-carboxamide], more than 2 µM; to `Cc1sc(N(Cc2ccccc2)c2ccnc3ccccc23)nc1C(=O)NS(C)(=O)=O` [Example 236, 2-[benzyl(4-quinolyl)amino]-5-methyl-N-methylsulfonyl-thiazole-4-carboxamide], more than 2 µM.
As for `Cc1sc(N(Cc2ccccc2CO)c2ccc(C#N)cc2)nc1C(=O)NS(C)(=O)=O` [Compound 355, 2-[4-cyano-N-[[2-(hydroxymethyl)phenyl]methyl]anilino]-5-methyl-N-methylsulfonyl-thiazole-4-carboxamide], the EC50 was 0.501 µM.
The value for `Cc1sc(N(CC(=O)NC2CC2)c2ccc(C#N)cc2)nc1C(=O)NS(C)(=O)=O` [Compound 412, 2-(4-cyano-N-[2-(cyclopropylamino)-2-oxo-ethyl]anilino)-5-methyl-N-methylsulfonyl-thiazole-4-carboxamide] was more than 2 µM.
To `Cc1sc(N(Cc2ccccc2)c2ccc(CCO)cc2)nc1C(=O)NS(C)(=O)=O` [Example 234, 2-[N-benzyl-4-(2-hydroxyethyl)anilino]-5-methyl-N-methylsulfonyl-thiazole-4-carboxamide] belongs more than 2 µM; to `Cc1sc(N(CC2CCCCO2)c2ccc(C#N)cc2)nc1C(=O)NS(C)(=O)=O` (centres unmarked) [Compound 345, 2-[4-cyano-N-(tetrahydropyran-2-ylmethyl)anilino]-5-methyl-N-methylsulfonyl-thiazole-4-carboxamide], more than 2 µM.
The value for `Cc1cc(F)cc(CN(c2ccc(C#N)cc2)c2nc(C(=O)NS(C)(=O)=O)c(C)s2)c1` [Compound 98, 2-[4-cyano-N-[(3-fluoro-5-methyl-phenyl)methyl]anilino]-5-methyl-N-methylsulfonyl-thiazole-4-carboxamide] was 0.0398 µM.
Turning to `Cc1ccc(S(=O)(=O)n2cc(CCN(Cc3ccccc3)c3nc(C(=O)NS(C)(=O)=O)c(C)s3)c3ccccc32)cc1` [Example 318, 2-[benzyl-[2-[1-(p-tolylsulfonyl)indol-3-yl]ethyl]amino]-5-methyl-N-methylsulfonyl-thiazole-4-carboxamide], the EC50 is more than 2 µM.
The value for `Cc1sc(N(CCCCO)c2ccc(C#N)cc2)nc1C(=O)NS(C)(=O)=O` [Compound 358, 2-[4-cyano-N-(4-hydroxybutyl)anilino]-5-methyl-N-methylsulfonyl-thiazole-4-carboxamide] was more than 2 µM; that for `COc1ccc(N(Cc2ccccc2)c2nc(C(=O)NS(C)(=O)=O)c(C)s2)cc1` [Compound 21, 2-(N-benzyl-4-methoxy-anilino)-5-methyl-N-methylsulfonyl-thiazole-4-carboxamide] was 1.58 µM; that for `Cc1sc(N(CC[C@@H]2CC[C@@H](F)C2)c2ccc(C#N)cc2)nc1C(=O)NS(C)(=O)=O` (racemic) [Compound 453, 2-[4-cyano-N-[2-[trans-3-fluorocyclopentyl]ethyl]anilino]-5-methyl-N-methylsulfonyl-thiazole-4-carboxamide] was 0.251 µM.
The value for `COCC(CN(c1ccc(C#N)cc1)c1nc(C(=O)NS(C)(=O)=O)c(C)s1)c1ccccc1` (centres unmarked) [Compound 377, 2-(4-cyano-N-(3-methoxy-2-phenyl-propyl)anilino)-5-methyl-N-methylsulfonyl-thiazole-4-carboxamide] was more than 2 µM.
To `Cc1sc(N(Cc2ncccc2OCc2ccccc2)c2ccc(C#N)cc2)nc1C(=O)NS(C)(=O)=O` [Compound 490, 2-[N-[(3-benzyloxy-2-pyridyl)methyl]-4-cyano-anilino]-5-methyl-N-methylsulfonyl-thiazole-4-carboxamide] belongs more than 2 µM.
